Laboratory results as given in patent US12540137B2, “N-1 branched alkyl ether substituted imidazo[4,5-c]quinoline compounds, compositions, and methods” (Solventum Intellectual Properties Company, priority 2018, dated 2026).
Where two headings read alike, the source gives them in different places.

Test system: Human peripheral blood mononuclear cells (PBMC)
Experiment: Cytokine induction in human cells (PBMC)
Type: cell-based
Conditions: for minimal effective concentration / MEC to Induce Cytokine TNF-alpha: human PBMC, 21-24 hours culture, lowest concentration giving cytokine level at least 2× negative control
Experimental: Whole blood was obtained from healthy human donors and collected by venipuncture into vacutainer tubes or syringes containing EDTA. Human peripheral blood mononuclear cells (PBMC) were purified from the whole blood by density gradient centrifugation. Histopaque 1077 (15 mL, Sigma, St. Louis, MO) was transferred to 6×50 mL sterile polypropylene conical tubes. The Histopaque was overlayed with 15-25 mL of blood diluted 1:2 in Hank's Balanced Salts Solution (HBSS) (Gibco, Life Technologies, Grand Island, NY). The tubes were then centrifuged at 1370 rpm for 30 minutes at 20° C., with no brake (400×g, GH 3.8A Rotor).
The interface (buffy coat) containing the PBMC was collected and placed in a new sterile 50 ml conical polypropylene centrifuge tube. The PBMC were mixed with an equal volume of HBSS (about 20 mL from the interface and about 20 mL of HBSS), and then centrifuged at 1090 rpm, 10 minutes, 20° C., with brake (270×g, GH 3.8A Rotor). After completing centrifugation, the cells were resuspended in 2-3 mL ACK Red blood cell lysis buffer (ammonium chloride potassium solution, Gibco, Life Technologies) and incubated for 2-5 minutes at 20° C. Next, HBSS (40 mL) was added to the cells, and the sample was centrifuged at 270×g for 10 minutes at 20° C. The supernatant was decanted, and the cell pellet was resuspended in 5 mL AIM V Medium (Gibco, Life Technologies). Cell aggregates and debris were removed by filtering the cell solution through a BD Falcon 70 micron nylon cell strainer (BD Biosciences, San Jose, CA).
The number of viable cells was determined by counting with a Miltenyi FACS instrument (Miltenyi Biotec Inc., San Diego, CA) or by using a hemocytometer. For determining cell viability with a hemocytometer, the cells were diluted 1/10 in 0.4% trypan blue and HBSS (specifically, 50 microliter of trypan blue+40 microliter of HBSS+10 microliter of cell solution were added to a microfuge tube and mixed). Ten microliters of the diluted cells were then applied to the hemocytometer, and the number of viable PBMC were determined by microscopy.
The PBMC sample was then resuspended in 96-well plates at a concentration of 8×10^5 cells/well in 0.1 mL of AIM-V medium. Each compound was solubilized in dimethyl sulfoxide (DMSO) to create a 3 mM stock solution. The stock solution was then further diluted with AIM-V medium to prepare the serial dilutions. The diluted compound (100 microliters) was then transferred to the PBMCs to produce testing sets with final compound concentrations of either 30, 10, 3.3, 1.1, 0.37, 0.12, 0.04, 0.01 micromolar (testing set A); 30, 10, 3.3, 1.1, 0.37, 0.12, 0.04 micromolar (testing set B); 100, 33.3, 11.1, 3.7, 1.2, 0.4 micromolar (testing set C); or 3.0, 1.0, 0.33, 0.11, 0.037, 0.012, 0.004, 0.0014 micromolar (testing set D). The plates also had both positive and negative controls. The negative control wells contained only AIM-V medium with no example compound. The positive control wells contained a control set of imiquimod serially diluted to concentrations of either 30, 10, 3.3, 1.1, 0.37, 0.12, 0.04, 0.01 micromolar (control set A); 30, 10, 3.3, 1.1, 0.37, 0.12, 0.04 micromolar (control set B); 100, 33.3, 11.1, 3.7, 1.2, 0.4 micromolar (control set C); or 3.0, 1.0, 0.33, 0.11, 0.037, 0.012, 0.004, 0.0014 micromolar (control set D). The concentrations used in the control set were selected to match the concentrations used in the testing set. The plates were then cultured at 37° C./5% CO2 for 21-24 hours. Cell-free supernatants were harvested by centrifuging the 96-well plates at 2100 rpm, 23° C. for 10 minutes. Approximately 160 microliters of the supernatant were then stored in a NUNC 96-well plate, covered with the compression cap and stored at −80° C. until the cytokine analysis was done.
IFN-alpha cytokine levels (picograms/mL) were measured by ELISA (human IFN-alpha, pan specific, Mabtech, Cincinnati, OH). […]

[1] = ELISA, read-out: MEC to Induce Cytokine IFN-alpha
[2] = multiplex bead assay, read-out: MEC to Induce Cytokine IFN-gamma

Row | Structure (SMILES) | minimal effective concentration [1] [µM] | MEC to Induce Cytokine TNF-alpha (multiplex bead assay) [µM] | minimal effective concentration [2] [µM] | activity toward cytokine production (statement in the description)
1 | COC[C@@H](n1cnc2c(N)nc3ccccc3c21)C(C)(C)C [Example 11, 1-[(1S)-1-(methoxymethyl)-2,2-dimethyl-propyl]imidazo[4,5-c]quinolin-4-amine] | ≤ 0.4 | ≤0.4 | ≤ 0.4 | –
2 | CCOC[C@H](n1cnc2c(N)nc3ccccc3c21)C(C)(C)C [Example 10, 1-[(1R)-1-(ethoxymethyl)-2,2-dimethyl-propyl]imidazo[4,5-c]quinolin-4-amine] | 3 | 3.0 | 3 | –
3 | CCOC[C@H](C(C)C)n1cnc2c(N)nc3ccccc3c21 [Example 1, 1-[(1S)-1-(ethoxymethyl)-2-methyl-propyl]imidazo[4,5-c]quinolin-4-amine] | ≤ 0.04 | ≤0.04 | ≤ 0.04 | –
4 | CCOC[C@@H](C(C)C)n1c(C)nc2c(N)nc3ccccc3c21 [Example 4, 1-[(1R)-1-(ethoxymethyl)-2-methyl-propyl]-2-methyl-imidazo[4,5-c]quinolin-4-amine] | 10 | 10 | > 30 | –
5 | CCOC[C@@H](n1cnc2c(N)nc3ccccc3c21)C(O)(CC)CC [Example 12, (2R)-2-(4-aminoimidazo[4,5-c]quinolin-1-yl)-1-ethoxy-3-ethyl-pentan-3-ol] | 0.04 | – | 0.12 | –
6 | CCO[C@@H](C)[C@@H](n1cnc2c(N)nc3ccccc3c21)C(C)(C)O [Example 13, (3R,4S)-3-(4-aminoimidazo[4,5-c]quinolin-1-yl)-4-ethoxy-2-methyl-pentan-2-ol] | 3.3 | 10 | 10 | –
7 | CCOC[C@@H](n1c(C)nc2c(N)nc3ccccc3c21)C(C)(C)O [Example 7, (3R)-3-(4-amino-2-methyl-imidazo[4,5-c]quinolin-1-yl)-4-ethoxy-2-methyl-butan-2-ol] | 0.12 | – | 0.37 | –
8 | CCOC[C@H](C(C)C)n1c(C)nc2c(N)nc3ccccc3c21 [Example 3, 1-[(1S)-1-(ethoxymethyl)-2-methyl-propyl]-2-methyl-imidazo[4,5-c]quinolin-4-amine] | 0.37 | 0.37 | 1.1 | –
9 | CCOC[C@@H](C(C)C)n1cnc2c(N)nc3ccccc3c21 [Example 2, 1-[(1R)-1-(ethoxymethyl)-2-methyl-propyl]imidazo[4,5-c]quinolin-4-amine] | 3.3 | 3.3 | > 30 | –
10 | CCOC[C@H](n1cnc2c(N)nc3ccccc3c21)C(C)(C)O [Example 6, (3S)-3-(4-aminoimidazo[4,5-c]quinolin-1-yl)-4-ethoxy-2-methyl-butan-2-ol] | > 100 | >100 | > 100 | inactive toward cytokine production
11 | CCOC[C@@H](n1cnc2c(N)nc3ccccc3c21)C(C)(C)C [Example 9, 1-[(1S)-1-(ethoxymethyl)-2,2-dimethyl-propyl]imidazo[4,5-c]quinolin-4-amine] | 0.004 | 0.004 | 0.012 | –
12 | CCOC[C@@H](n1cnc2c(N)nc3ccccc3c21)C(C)(C)O [Example 5, (3R)-3-(4-aminoimidazo[4,5-c]quinolin-1-yl)-4-ethoxy-2-methyl-butan-2-ol] | 0.12 | 0.04 | 0.12 | –
13 | CCOC[C@@H](n1c(CC)nc2c(N)nc3ccccc3c21)C(C)(C)O [Example 8, (3R)-3-(4-amino-2-ethyl-imidazo[4,5-c]quinolin-1-yl)-4-ethoxy-2-methyl-butan-2-ol] | 10 | – | 3.3 | –
